The text below walks through data of patent US5076973A, “Synthesis of dolastatin 3” (Arizona Board of Regents, priority 1988, dated 1991).

This data set in a line: Stability in solution and in storage. Type of data set: physicochemical.

For `CC(C)C[C@@H]1NC(=O)[C@@H]2CCCN2C(=O)[C@H](C(C)C)NC(=O)c2csc(n2)CNC(=O)c2csc(n2)[C@H](CCC(N)=O)NC1=O` [dolastatin 3, Cyclo-[L-Val-L-Pro-L-Leu-L-(gln)Thz-(gly)Thz]], the “Stability / decomposition in solution” value (in solution, especially in chloroform) is recorded as “tendency to undergo decomposition in solution”. For the same compound, the Stability in storage result (storage of isolated natural sample) was “decomposed in storage”.
